# Data from patent publication US20030133881A1, “Formulations for the remineralization of teeth” (priority 2001, published 2003).
# Columns and labels:
# [1] = test system: Streptococcus sobrinus; TH 21; experiment: Ozone on S. sobrinus on saliva coated glass beads; details: 10 seconds of ozone applied to saliva coated glass beads
# Protocol: In study 2, 40 sterile saliva coated glass beads were put into bijoux bottles with 3 mls of Todd Hewitt broth for control and test groups. S. sobrinus and S. mutans were inoculated and incubated anaerobically overnight. Each glass bead was washed with 2 mls of PBS. Immediately, 10 seconds of ozone was applied to the glass beads in the test groups. Subsequently, each glass bead in the test and control groups was placed in 3 mls of Todd Hewitt broth with six more sterile glass beads and were vortexed for 30 seconds. After decimal dilutions, 100 ml aliquots were spread on blood agar plates supplemented with 5% (V/V) horse blood and placed in an anaerobic chamber at 37° C. for two days. The number of each colony type was counted and calculated.
# [2] = test system: microflora from primary root carious lesions (PRCL); experiment: Ozone effect on microflora from primary root caries ex-vivo; assay type: cell-based; details: for Mean ± SE of Total cfu (Log10): After 10 Seconds of Ozone Treatment
# Excerpt: Primary root carious lesions (PRCL) are a major clinical problem. The aim of this study was to establish if ozone could achieve effective microbial killing in PRCL. An ozone producing generator (Purezone Ltd., Ipswich, U.K.) was used in this ex-vivo study assessing the use of ozone on PRCL. In this study, soft PRCL requiring restoration were used as these are the most severe type of lesion found in humans. 20 freshly extracted teeth with PRCL requiring restoration were used. After plaque removal using a hand held standard fine nylon fiber sterile toothbrush with sterile water as a lubricant to cleanse the surface, each tooth was then isolated using sterile cotton wool rolls and dried using a dry sterile cotton wool roll. […] Each sample was weighed and immediately placed in 1 ml of Fastidious Anaerobe Broth (FAB). To each 1 ml of FAB containing a biopsy o carious or ozone treated carious dentine, sterile glass beads were added. They were vortexed for 30 seconds to facilitate the extraction of any micro-organisms from the carious dentine and disperse any aggregates.
# The procedure of Example 2 was repeated except that ozonized water was applied to the lesion for 20 seconds.
smiles,measurement,setting,value
O=[O+][O-] [ozone],"colony count (log10), Mean±SE",[1],1.09±0.36 log10
same,percentage of micro-organisms killed,"[2]; 10 seconds of ozone, PRCL ex-vivo",more than 99%
same,Mean ± SE of Total cfu (Log10),[2]; soft PRCL from extracted teeth,3.57±0.37 Log10
same,Mean ± SE of Total cfu (Log10),"[2]; soft PRCL from extracted teeth, listed as Ozone",3.57 ± 0.37 Log10
same,"Total cfu (log10), mean±SE","[2]; after 20 seconds of ozone treatment, soft PRCL from extracted teeth",3.77±0.42 log10
